Assay results published in patent US20250161288A1, “MULTIMERIZER PHARMACEUTICAL COMPOSITIONS” (PONCE THERAPEUTICS, INC., priority 2022, published 2025).

Key:
[1] = class IV characterisation, aqueous solubility; cited from earlier work
[2] = assay type: physicochemical
Text: As such, rimiducid is categorized as a biopharmaceutical classification system (BCS) class IV drug. Although there are exceptions, BCS class IV compounds generally are viewed as poor candidates for oral delivery (Markovic et al., Pharmaceutics 2020, 12(12), 1175. doi.org/10.3390/pharmaceutics12121175). For a compound to be absorbed, it must first be in solution. […] Once solubilized, rimiducid must cross the plasma membranes of the intestinal tract to be absorbed. […] Because of the molecular weight of 1411.6 Da, passive absorption of rimiducid through the intestinal aqueous porin channels is unlikely (Dahlgren et al., Pharmaceutics. 2019; 11(8):411. Published 2019 Aug. 13. doi:10.3390/pharmaceutics11080411).

[3] = Drug Bank Online; cited from earlier work

theoretical maximal solubility of rimiducid within the upper GI tract [2]: less than 250 μg
Compound: CC[C@H](C(=O)N1CCCC[C@H]1C(=O)O[C@H](CCc1ccc(OC)c(OC)c1)c1cccc(OCC(=O)NCCNC(=O)COc2cccc([C@@H](CCc3ccc(OC)c(OC)c3)OC(=O)[C@@H]3CCCCN3C(=O)[C@@H](CC)c3cc(OC)c(OC)c(OC)c3)c2)c1)c1cc(OC)c(OC)c(OC)c1 [Rimiducid, rimiducid]
volume required to dissolve an effective dose [1]: greater than 250 milliliters | water solubility [3]: less than 0.5 μg/mL
